According to patent US12582652B2, “3-(ethoxydifluoromethyl)-6-(5-fluoro-6-(2,2,2-trifluoroethoxy)pyridin-3-yl)-[1,2,4]triazolo[4,3-a]pyrazine as an ion channel modulator” (Praxis Precision Medicines, Inc., priority 2022, dated 2026):
Entries after “also recorded” stand apart in the source; their conditions may differ.

Experiments:
human NaV1.6 = target: T1, human NaV1.6 (Homo sapiens, UniProt Q9UQD0); experiment: Peak INa use-dependent block (UDB-10 Hz), PatchXpress patch clamp; assay type: cell-based
T1 construct: stably expressing either human NaV1.6 (NP_055006); expressed in transfected cells
T1 sequence (Q9UQD0 whole entry): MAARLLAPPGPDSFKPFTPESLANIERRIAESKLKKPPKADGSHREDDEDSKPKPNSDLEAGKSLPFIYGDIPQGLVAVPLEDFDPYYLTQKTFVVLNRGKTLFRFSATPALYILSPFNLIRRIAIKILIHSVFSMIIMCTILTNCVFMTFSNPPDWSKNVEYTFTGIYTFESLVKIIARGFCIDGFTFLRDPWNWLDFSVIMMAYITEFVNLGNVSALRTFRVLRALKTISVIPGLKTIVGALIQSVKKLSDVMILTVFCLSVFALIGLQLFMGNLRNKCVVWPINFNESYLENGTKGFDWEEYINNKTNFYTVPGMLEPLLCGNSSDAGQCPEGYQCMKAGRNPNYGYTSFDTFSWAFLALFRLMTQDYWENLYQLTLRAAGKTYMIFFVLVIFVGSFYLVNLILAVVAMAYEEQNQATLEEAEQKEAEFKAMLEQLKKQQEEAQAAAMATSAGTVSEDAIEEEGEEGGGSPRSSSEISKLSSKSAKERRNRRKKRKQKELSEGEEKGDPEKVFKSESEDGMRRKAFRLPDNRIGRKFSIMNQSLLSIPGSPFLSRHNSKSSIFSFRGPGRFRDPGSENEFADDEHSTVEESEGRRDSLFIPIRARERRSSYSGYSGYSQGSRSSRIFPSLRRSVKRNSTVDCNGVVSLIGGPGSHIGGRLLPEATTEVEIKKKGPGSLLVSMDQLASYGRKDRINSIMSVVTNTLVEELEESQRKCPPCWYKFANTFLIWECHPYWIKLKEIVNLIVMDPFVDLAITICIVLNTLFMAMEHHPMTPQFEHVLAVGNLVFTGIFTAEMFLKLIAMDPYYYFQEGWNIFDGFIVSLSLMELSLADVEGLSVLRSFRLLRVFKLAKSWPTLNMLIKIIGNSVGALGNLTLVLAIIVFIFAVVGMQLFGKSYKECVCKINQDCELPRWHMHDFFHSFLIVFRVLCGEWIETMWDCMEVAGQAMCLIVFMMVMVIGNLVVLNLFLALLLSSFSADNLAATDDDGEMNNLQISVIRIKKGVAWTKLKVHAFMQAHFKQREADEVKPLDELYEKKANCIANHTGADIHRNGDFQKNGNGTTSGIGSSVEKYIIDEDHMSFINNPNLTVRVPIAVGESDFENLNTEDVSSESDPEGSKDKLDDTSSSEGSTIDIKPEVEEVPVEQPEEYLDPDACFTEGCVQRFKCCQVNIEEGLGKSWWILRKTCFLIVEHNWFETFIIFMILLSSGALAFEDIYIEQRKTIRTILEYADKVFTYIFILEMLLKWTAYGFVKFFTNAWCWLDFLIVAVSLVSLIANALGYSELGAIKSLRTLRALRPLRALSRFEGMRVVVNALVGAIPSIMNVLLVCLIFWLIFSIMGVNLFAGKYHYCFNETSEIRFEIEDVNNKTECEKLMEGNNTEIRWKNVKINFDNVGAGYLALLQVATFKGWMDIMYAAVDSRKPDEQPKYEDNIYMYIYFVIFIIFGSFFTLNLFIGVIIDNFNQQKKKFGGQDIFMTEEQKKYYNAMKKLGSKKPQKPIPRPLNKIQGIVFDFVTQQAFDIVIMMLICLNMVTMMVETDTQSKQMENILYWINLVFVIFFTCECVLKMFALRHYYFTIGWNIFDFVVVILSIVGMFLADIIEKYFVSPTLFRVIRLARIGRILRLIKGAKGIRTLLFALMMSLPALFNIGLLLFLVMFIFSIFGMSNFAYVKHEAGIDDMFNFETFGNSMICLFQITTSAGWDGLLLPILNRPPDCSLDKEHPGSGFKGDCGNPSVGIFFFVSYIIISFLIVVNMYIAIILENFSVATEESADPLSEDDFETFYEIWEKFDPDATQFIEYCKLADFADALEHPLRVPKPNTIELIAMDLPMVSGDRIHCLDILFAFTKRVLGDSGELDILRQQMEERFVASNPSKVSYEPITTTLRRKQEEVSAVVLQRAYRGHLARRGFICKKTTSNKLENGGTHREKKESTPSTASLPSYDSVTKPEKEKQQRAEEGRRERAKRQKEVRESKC

hNaV1.6-N1768D = target: T2, hNaV1.6-N1768D (Homo sapiens, UniProt Q9UQD0, N1768D); experiment: Persistent INa expressed by DEE mutant channel, patch clamp; assay type: cell-based; settings: hNaV1.6-N1768D DEE mutant
T2 construct: expressed in transfected cells
T2 sequence (Q9UQD0 whole entry N1768D): as the sequence (Q9UQD0 whole entry) above, with N1768D counted along it

hNaV1.1 = hNaV1.1 (Homo sapiens, UniProt P35498); experiment: Peak INa voltage-dependent block, patch clamp; assay type: cell-based
Experimental: (§1) Voltage Dependent Block (VDB): VDB protocols used a depolarized voltage to keep channels in half-inactivated (resting) states. This allowed equilibrium binding and accurate determination of isoform selectivity (in the absence of biological features). For each cell, the midpoint of inactivation (V0.5) was determined using a 5,000 ms step to increase voltages (10 mV increments) to inactivate the channel immediately followed by a 2 ms step to 0 mV to maximally activate the channels. The holding potential (Vhold) was −120 mV between steps. The peak INa measured in response to the step to 0 mV was plotted and fitted with a Boltzmann equation to determine the V0.5. This value was then used for the VDB protocol. Pharmacology was measured during peak INa in response to step to 0 mV. No leak subtraction was used.

hNaV1.2 = hNaV1.2 (Homo sapiens, UniProt Q99250); experiment: Peak INa voltage-dependent block, patch clamp; assay type: cell-based
hNaV1.2, sequence (Q99250 whole entry): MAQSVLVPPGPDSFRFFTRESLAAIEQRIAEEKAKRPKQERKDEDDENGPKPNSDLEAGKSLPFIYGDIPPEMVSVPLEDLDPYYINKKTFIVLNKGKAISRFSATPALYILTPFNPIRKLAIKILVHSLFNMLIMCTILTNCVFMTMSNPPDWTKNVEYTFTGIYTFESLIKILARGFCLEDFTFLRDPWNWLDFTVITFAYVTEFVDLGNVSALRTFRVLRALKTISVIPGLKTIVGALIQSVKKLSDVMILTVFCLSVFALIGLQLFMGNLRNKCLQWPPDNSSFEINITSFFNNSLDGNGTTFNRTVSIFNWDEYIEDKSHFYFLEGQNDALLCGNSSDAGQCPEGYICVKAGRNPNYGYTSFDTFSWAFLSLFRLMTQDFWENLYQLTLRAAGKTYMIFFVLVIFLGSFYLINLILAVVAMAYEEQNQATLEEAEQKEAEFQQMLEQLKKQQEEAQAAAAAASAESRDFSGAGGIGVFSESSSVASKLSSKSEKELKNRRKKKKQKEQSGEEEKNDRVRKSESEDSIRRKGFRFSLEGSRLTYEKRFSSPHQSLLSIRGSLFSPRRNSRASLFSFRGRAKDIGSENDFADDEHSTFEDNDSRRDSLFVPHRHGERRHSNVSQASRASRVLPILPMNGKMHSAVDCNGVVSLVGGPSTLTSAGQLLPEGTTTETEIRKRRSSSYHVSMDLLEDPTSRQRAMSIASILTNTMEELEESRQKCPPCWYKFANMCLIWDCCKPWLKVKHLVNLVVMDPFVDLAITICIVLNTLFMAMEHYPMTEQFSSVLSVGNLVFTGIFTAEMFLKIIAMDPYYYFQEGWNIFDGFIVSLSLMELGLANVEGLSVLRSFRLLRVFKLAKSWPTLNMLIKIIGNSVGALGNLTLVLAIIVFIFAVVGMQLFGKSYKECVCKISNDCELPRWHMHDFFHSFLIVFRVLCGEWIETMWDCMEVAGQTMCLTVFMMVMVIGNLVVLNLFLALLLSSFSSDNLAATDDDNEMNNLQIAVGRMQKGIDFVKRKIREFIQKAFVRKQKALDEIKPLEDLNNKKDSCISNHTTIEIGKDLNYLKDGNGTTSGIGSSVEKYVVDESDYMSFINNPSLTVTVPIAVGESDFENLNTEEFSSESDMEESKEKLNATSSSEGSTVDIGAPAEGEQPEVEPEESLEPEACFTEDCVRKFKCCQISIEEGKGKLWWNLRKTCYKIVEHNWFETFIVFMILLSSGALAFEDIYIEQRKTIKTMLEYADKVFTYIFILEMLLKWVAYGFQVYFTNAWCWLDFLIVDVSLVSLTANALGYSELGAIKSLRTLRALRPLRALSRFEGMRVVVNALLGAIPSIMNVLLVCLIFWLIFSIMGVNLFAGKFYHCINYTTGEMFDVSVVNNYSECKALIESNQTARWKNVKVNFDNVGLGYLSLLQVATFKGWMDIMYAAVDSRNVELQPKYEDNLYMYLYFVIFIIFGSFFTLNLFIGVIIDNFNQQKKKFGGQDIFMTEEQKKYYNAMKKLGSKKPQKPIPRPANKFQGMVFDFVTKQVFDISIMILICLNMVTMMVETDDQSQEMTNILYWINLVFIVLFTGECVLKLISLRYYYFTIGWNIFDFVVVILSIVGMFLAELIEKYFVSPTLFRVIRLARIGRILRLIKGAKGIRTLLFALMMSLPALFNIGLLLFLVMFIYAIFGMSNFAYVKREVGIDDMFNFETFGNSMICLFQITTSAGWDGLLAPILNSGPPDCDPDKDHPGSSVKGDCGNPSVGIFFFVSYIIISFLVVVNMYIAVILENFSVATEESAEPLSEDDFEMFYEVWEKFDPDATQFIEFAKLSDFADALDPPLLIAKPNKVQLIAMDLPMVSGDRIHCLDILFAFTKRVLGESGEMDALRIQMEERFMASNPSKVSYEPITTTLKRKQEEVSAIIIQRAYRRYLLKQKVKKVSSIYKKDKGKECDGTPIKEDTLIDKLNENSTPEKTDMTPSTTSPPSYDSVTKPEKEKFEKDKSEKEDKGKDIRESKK
Experimental: as §1

hNaV1.5 = hNaV1.5 (Homo sapiens, UniProt Q14524); experiment: Peak INa voltage-dependent block, patch clamp; assay type: cell-based
Experimental: as §1

hNaV1.6 = target: T3, hNaV1.6 (Homo sapiens, UniProt Q9UQD0); experiment: Steady-state inactivation and activation curves (V1/2 shift); assay type: cell-based; settings: for shift in V1/2 of activation curve: DMSO control −1.3 mV
T3 construct: stably expressing either human NaV1.6 (NP_055006); expressed in transfected cells
T3 sequence (Q9UQD0 whole entry): as the sequence (Q9UQD0 whole entry) above

[1] = test system: Scn2a^Q54 transgenic mice; experiment: Spontaneous seizure frequency in Scn2aQ54 mouse model of elevated persistent sodium current; assay type: in vivo
Text: Scn2a^Q54 transgenic mice were generated as described and are maintained as a congenic line on the C57BL/6J (Jax #000664) background (B6.Q54) (Kearney et al., 2001; PMID 11166117). For experiments, F1 generation mice were produced by crossing B6.Q54 hemizygous transgenic males with SJL/J (Jax #000686) females and genotyping for the Scn2a^Q54 transgene. Experimental animals used in this study were male and female postnatal day 18-21 (P18-21) mice, with the majority being P19-P20.
Dosing solutions were freshly formulated on the morning on the study. Dosing solution contained 0.5% methylcellulose with 0.2% Tween-80 was made with 1 mL 10% Tween-80 (in ddH20) and 49 mL 0.5% methylcellulose (in ddH20) either with or without (vehicle) Compound 1 (0.3 mg/kg, 1 mg/kg, 3 mg/kg, or 10 mg/kg). Each animal received a single administration of vehicle or Compound 1 by oral gavage.
For seizure monitoring, two mice were placed into a monitoring cage (23 cm×13 cm) and two side-view cameras were placed to record baseline spontaneous seizure activity. […] After the 30-minute recording, mice were administered Compound 1 or vehicle and returned to their home cage. After 30 minutes, the two mice were returned to the monitoring cage and recorded for an additional 30 minutes to assess post-treatment seizure activity. The number of focal motor seizures with forelimb clonus and repetitive movements lasting 1-5 seconds, and generalized tonic-clonic seizures (GTCS) with rearing and falling lasting approximately 1 minute were counted. Seizures were scored offline by an observer blinded to treatment and pre/post status of the video file.
The numbers of seizures before and after treatment were counted for each animal by a reviewer blinded to treatment and pre/post status of the video record. Mice that had less than three seizures or more than 35 seizures during the baseline period were excluded from the analysis as pre-defined in the study design. Statistical analysis was conducted using two-way repeated measures ANOVA and Sidak's multiple comparisons, with p<0.05 considered statistically significant (GraphPad Prism 8.4). Change in average seizure frequency was determined by averaging each group and then computing relative change as [(avg. post−avg. pre)/avg. pre], expressed as a percentage.

[2] = Phase 1 SAD/MAD/food effect trial: pharmacokinetics; assay type: in vivo, human
Experimental: (§2) This was a 3-part Phase 1 clinical trial in healthy participants aged 18-55 years. Parts A and B were randomized, placebo-controlled and evaluated the effects of single (2.5-150 mg) and multiple (30-120 mg, 14 days QD (every day)) ascending oral doses of Compound 1, respectively. Part C was an open-label, randomized, crossover design evaluating the PK of a single oral dose (90 mg) in fasted and fed states. In Parts A (n=64) and B (n=32), participants were randomized 3:1 to Compound 1 or placebo (n=8/cohort). In Part C (n=16), participants were randomized 1:1 to one of two treatment sequences receiving a single dose of 90 mg Compound 1 in the fed (following a high-fat/high calorie meal) or fasted (≥10 hours after the last, and 4 hours before the next, meal) state.

healthy participants [3] = experiment: Phase 1 SAD/MAD trial: EEG pharmacodynamics (ASSR, qEEG); assay type: in vivo, human; settings: for reduction from baseline in ASSR phase-locking factor (PLF): Day 14, 2 hours 35 minutes postdose
Experimental: as §2
In this clinical trial, the PD activity of Compound 1 was evaluated in healthy participants using electroencephalogram (EEG)-based auditory steady-state response (ASSR) measures and resting state EEG (qEEG)-based spectral power measures under eyes-open and eyes-closed conditions.

healthy participants [4] = experiment: Phase 1 SAD/MAD/food effect trial: safety and tolerability; assay type: in vivo, human
Experimental: as §2

male CD-1 mice = experiment: Spontaneous locomotor activity (sLMA) test
Experimental: Male CD-1 mice, 6-weeks old, were obtained from Vital River (Beijing, China). The average body weight was 25-35 g at the time the experiments were carried out. The mice were housed in groups of 3-5 under controlled conditions (temperature: 20-26° C.; humidity: 40-70%; air exchange rate: 10-15 cycles/hour; 12:12 light-dark cycle with lights on at 5:00 a.m.). Food and water were available ad libitum. The mice were acclimated to these conditions for 6 days before the start of the studies.
Dosing solutions were prepared on each experiment day. […] All solutions were protected from light. Samples from dosing solutions were stored at 4° C. Both compound and vehicle were dosed at 10 ml/kg.
The sLMA test was carried out over two days. 5 of 10 mice from each treatment group were tested on each day. All animals were marked on the tail with a permanent marker and weighed. Mice were randomly assigned into one of the four treatment groups. Animals were acclimated to the test room at least 30 minutes before the start of the experiment.
Possible side effects, such as overt sedation, were recorded just before the start of the sLMA test.
Each mouse was automatically tracked with overhead cameras using a 1-minute sampling window in an isolated chamber. Spontaneous locomotor activity was then analyzed offline using the Animal Behavior Video Tracking Analysis System (Ji Liang Software Technology Co., Ltd., Shanghai, China).
Locomotor status was defined as >2 mm of movement in every 200 ms (Frame-rate recorded was 20 frames/second. Locomotor status was identified in every 4 frame-to-frame interval. The accumulated shift of tracking spots that exceeded 2 mm in every 4 frame intervals was identified as a locomotor epoch). Traveling distance was calculated automatically from all the locomotion epochs and analyzed.
All mice were anesthetized with CO2. Then, terminal plasma and brain tissue samples were collected from animals in the drug treatment groups. 500 μL whole blood was collected via cardiac puncture and placed in tubes with 10 μL EDTAK2. The tubes were then placed in wet ice until centrifuged at 2000 g for 5 minutes at 4° C. The supernatant plasma was pipetted into Eppendorf tubes.
All statistical analyses were conducted using GraphPad Prism 7.0. Data are presented as mean±s.e.m., and p<0.05 was regarded as statistically significant.
Dose-response and concentration-response curves for plasma and brain were fitted for each end-point using GraphPad Prism. From these fitted curves, TD50 and TC50 values were calculated.

[5] = test system: hNaV1.1, hNaV1.2, hNaV1.5, rNaV1.2, dNaV1.2, mNaV1.6, rNaV1.6; experiment: Persistent INa of other NaV isoforms and orthologs, patch clamp; settings: read-out: persistent INa IC50 values across isoforms and orthologs
Text: Persistent INa was activated from resting/closed channel conformations by maintaining a hyperpolarized holding potential (−120 mV).

Question: Which “Ratio to Peak INa (TB) (UDB-10 Hz)” value (human NaV1.6; hNaV1.6) does the source give for CCOC(F)(F)c1nnc2cnc(-c3cnc(OCC(F)(F)F)c(F)c3)cn12 [Compound 1, 3-(ethoxydifluoromethyl)-6-(5-fluoro-6-(2,2,2-trifluoroethoxy)pyridin-3-yl)-[1,2,4]triazolo[4,3-a]pyrazine] here?
Answer: 31

Question: What about the “Ratio to Pers. INa (Peak INa UDB-10 Hz / persistent INa)” value (human NaV1.6; hNaV1.6) of the same molecule?
Answer: 2

Question: And the IC50 (human NaV1.6; hNaV1.6, 10 Hz)?
Answer: 271 nM

Question: What about the “Peak INa UDB-10 Hz maximum inhibition” value (human NaV1.6; hNaV1.6, 10 Hz) of the same molecule?
Answer: 75%

Question: What about the “use-dependent block at stimulation frequency of 10 Hz” value (human NaV1.6; hNaV1.6, 10 Hz) of the same molecule?
Answer: concentration dependent inhibition

Question: What about the “use-dependent block at increased frequencies” value (human NaV1.6; hNaV1.6, 10 Hz, 30 Hz or 50 Hz) of the same molecule?
Answer: significantly greater compared with CBZ

Question: What about the IC50 (hNaV1.6-N1768D) of the same molecule?
Answer: 75 nM

Question: And the “preference for persistent INa over peak INa voltage-dependent block” value (hNaV1.1)?
Answer: 6.3 fold

Question: And the “preference for persistent INa over peak INa voltage-dependent block” value (hNaV1.2)?
Answer: 8.2 fold

Question: And the “preference for persistent INa over peak INa voltage-dependent block” value (hNaV1.5)?
Answer: 5.8 fold

Question: What about the “shift in V1/2 of activation curve” value (hNaV1.6; 0.3 μmol/L) of the same molecule?
Answer: −2.3 mV

Question: What about the “shift in V1/2 of activation curve” value (hNaV1.6; 1 μmol/L) of the same molecule?
Answer: −2.7 mV

Question: And the “shift in V1/2 of steady-state inactivation curve” value (hNaV1.6; 1 μmol/L, DMSO control −2.6 mV)?
Answer: −11.7 mV

Question: What about the “mice showing seizures after dosing” value ([1]; 10 mg/kg) of the same molecule?
Answer: no mice showing any seizures

Question: And the “seizure frequency compared to pre-treatment baseline” value ([1]; 1, 3 and 10 mg/kg p.o., 30 min after treatment)?
Answer: significant reduction

Question: And the “protection from spontaneous seizures (FIG. 14A)” value ([1]; Scn2a Q54 DEE mouse model)?
Answer: completely block seizures

Question: What about the “reduction in seizure frequency” value ([1]; doses of 1 mg/kg and above) of the same molecule?
Answer: 50%

Question: And the “exposure over the evaluated dose range” value ([2]; healthy adults, oral, single 2.5-150 mg, multiple 30-120 mg QD)?
Answer: increased dose proportionally

Question: What about the “increase in AUC, fed vs fasted state” value ([2]; single 90-mg dose) of the same molecule?
Answer: 14%

Question: And the “increase in Cmax, fed vs fasted state” value ([2]; single 90-mg dose)?
Answer: 9%

Question: And the “reduction from baseline in ASSR phase-locking factor (PLF)” value (healthy participants [3]; 90 mg QD)?
Answer: approximately 30%

Question: What about the “reduction from baseline in ASSR phase-locking factor (PLF)” value (healthy participants [3]; 120 mg QD) of the same molecule?
Answer: ~60%

Question: And the “qEEG Delta (1.5-6 Hz) and Theta (6-8.5 Hz) band spectral power” value (healthy participants [3]; 120 mg single dose and 120 mg QD)?
Answer: Increases from baseline

Question: What about the “ASSR-based absolute evoked gamma power vs placebo” value (healthy participants [3]; any Compound 1 dose level) of the same molecule?
Answer: No statistically significant differences

Question: And the “TEAEs that were mild” value (healthy participants [4]; healthy participants)?
Answer: > 92%

Question: And the “safety findings in vital signs, clinical laboratory results, physical exams, ECGs, C-SSRS” value (healthy participants [4]; healthy participants)?
Answer: no clinically significant safety findings

Question: What about the “participants experiencing typical NaV blocker events” value (healthy participants [4]; more frequent at 120 mg and 150 mg) of the same molecule?
Answer: 34%

Question: What about the “tolerability in healthy participants” value (healthy participants [4]; single doses up to 150 mg, up to 120 mg QD 14 days, 90 mg fed and fasted) of the same molecule?
Answer: well-tolerated; also recorded: well tolerated

Question: What about the “effect on locomotor function” value (male CD-1 mice; 10 mg/kg) of the same molecule?
Answer: no effect on locomotor function

Question: And the “total traveling distance in 30-minute sLMA test” value (male CD-1 mice; 20 and 40 mg/kg p.o.)?
Answer: significantly reduced; also recorded: reductions in the distance moved

Question: And the “sLMA distance moved, dose-response” value (male CD-1 mice; Compound 1 10-40 mg/kg po)?
Answer: dose-dependent reductions in distance moved

Question: What about the “sLMA TC50 in brain (total)” value (male CD-1 mice; brain) of the same molecule?
Answer: 1899 ng/g

Question: And the “sLMA TC50 in brain (free)” value (male CD-1 mice; brain, free)?
Answer: 69.7 nM

Question: What about the “Tolerability (sLMA) TD50” value (male CD-1 mice; dose reducing sLMA by 50%) of the same molecule?
Answer: 44 mg/kg

Question: And the “Tolerability (sLMA) TC50 (free brain)” value (male CD-1 mice; free brain concentration)?
Answer: 69.7 nM

Question: And the “sLMA TC50 in plasma (total)” value (male CD-1 mice; plasma)?
Answer: 1.553 µg/mL

Question: What about the “PI (Plasma)” value (male CD-1 mice; plasma TC50 (sLMA) / plasma EC50 (MES), free concentrations) of the same molecule?
Answer: 17.3

Question: What about the “sLMA TC50 in plasma (free)” value (male CD-1 mice; plasma, free) of the same molecule?
Answer: 308.9 nM

Question: What about the IC50 [5] of the same molecule?
Answer: 109 to 180 nM
